In this series the test system is A375SM-Luc cells harboring the BRAF^V600 mutation. Briefly: A375SM_Luc cell brain metastasis mouse model. The format is in vivo. The conditions noted are these: for mOS (median overall survival): vehicle 24.5 days; for day from which clinical signs of debility due to tumor growth occurred: vehicle after day 11. As for the experimental part:
The mouse strain was BALB/c Nude (nu/nu) produced and supplied by Orient Bio Inc., Korea.
The mice were kept in conventional animal lab cages for at least one week for acclimation before the start of the experiment. The cages were polysulfone 1291H (W425×D266×H185 mm, Techniplast, Italy). Eight mice were housed in each cage at a temperature of 22±2° C., a relative humidity of 50±20%, a ventilation frequency of 10-15 times/h, a 12 hour light/dark cycle, a light intensity of 150-300 Lux, at least weekly cage replacement. The mice were fed ad libitum Picolab Rodent diet (5053, Lab Diet, USA). Tap water was given ad libitum following UV irradiation and filtration.
The cancer cell line was A375SM-Luc harboring the BRAF^V600 mutation. That cell line was deemed suitable for the efficacy study of RAF inhibitors against BRAF^V600 in melanoma.
The A375SM-Luc cell line was established as follows. A375SM cells were seeded into 24 well clear flat-bottomed plates with 2.5×10^5 cells/well in MEM medium (Gibco, USA) supplemented with 10% FBS (Gibco, USA). The next day, CMV-Firefly luciferase lentivirus (Cellomics Inc., USA) was diluted in complete medium containing 8 μg/mL polybrene (Sigma Aldrich, St. Louis MO, USA). Cells were centrifuged in the prepared medium for 90 minutes at 800×g, followed by incubation in fresh medium for 2 to 3 days. Stable clones were selected using puromycin, and individual clones were screened for luciferase activity be measuring their light emission with the IVIS® Lumina Series III In Vivo Imaging System (PerkinElmer Inc., USA) after adding 10 μL (15 mg/mL) D-Luciferin (Gold Biotechnology, USA). The in vitro media was MEM 10% FBS. The in vitro culture condition was incubation at 5% CO2 at 37° C.
The in vivo cell inoculation was as follows. Mice were anesthetized by intraperitoneal (i.p.) injection of 30 mg/kg Zoletil 50 (Virbac, France) and 10 mg/kg Rompun (Bayer Korea, Korea). Five thousand cells suspended in 10 μL phosphate buffered saline were intracranially injected into the right frontal hemisphere (AP+2.0, ML−1.0, DV+2.0 from the bregma) using a stereotactic fixation device (David Kopf Instruments, USA). Mouse models were produced over two days.
The mice were randomized by their tumor burden by BLI (8 mice per group) after 6-7 days from inoculation (implantation). The mice were then dosed with belvarafenib dihydrochloride, 99.6% purity, that was stored at room temperature. Dosing was based on active ingredient free base and was corrected for assay and water content. The dosing vehicle was DMSO (5%), cremophore EL (5%), and deionized water (90%). Belvarafenib for dosing was dissolved in the vehicle.
Belvarafenib (in groups 2 and 3) and vehicle (in group 1) were dosed at 10 mL/kg (p.o.) once per day (QD) for a duration of 102 days.
Body weight measurement was performed twice a week during the dosing period. Relative body weight (%) was calculated by: body weight Day X (g)/initial body weight (g)×100 (Day X=body weight measurement day). Tumor burden was measured by bioluminescence imaging (BLI) using a IVIS® Lumina Series III In Vivo Imaging System (PerkinElmer Inc., USA) each week. […] Kaplan-Meier survival curves showing prolonged survival of mice of groups 1 to 3 were plotted from the date of drug administration. The median overall survival rate (mOS) was the amount of time after which 50% of the mice had died and 50% had survived.
The data were expressed as means±standard error of the mean (SEM). Statistical analysis was conducted by GraphPad PRISM® Version 6 (GraphPad Software, USA). […] was conducted to evaluate significant differences between the groups. A p value less than 0.05 was considered statistically significant.
Mice were intraperitoneally injected with 15 mg/mL of D-Luciferin on each of days 1, 5, 12, 19, 26, 33, 40, 47, 54, 61, 68, 75, 82, 89, 96, and 103 and evaluated with BLI imaging with an IVIS® Lumina Series III In Vivo Image System (PerkinElmer Inc., USA).

The structures appear in SMILES notation.

`Cc1ccc2c(Nc3cccc(Cl)c3F)nccc2c1NC(=O)c1csc2c(N)ncnc12` [Belvarafenib, 4-amino-N-(1-((3-chloro-2-fluorophenyl)amino)-6-methylisoquinolin-5-yl)thieno[3,2-d]pyrimidine-7-carboxamide]: the “tumor burden by bioluminescence imaging (BLI)” value is given as “more effective tumor inhibition than the vehicle” (5 mg/kg p.o. QD) and “markedly delayed tumor growth as compared to the vehicle” (15 mg/kg p.o. QD). Further, the Maximum weight loss (5 mg/kg p.o. QD, day 39) is 33.0 (day 39) %. The “mOS (median overall survival)” value runs as follows: (5 mg/kg p.o. QD) 34.5 days; (15 mg/kg p.o. QD) 70.0 days. In addition, the “day from which clinical signs of debility due to tumor growth occurred” value was 14 days (group 2 (5 mg/kg)) and 16 days (group 3 (15 mg/kg)). The “day of administration from which hair growth showed” value (groups 2 and 3 (5 and 15 mg/kg)) was found to be 7 days.

Values taken from patent US20240173329A1, “BELVARAFENIB FOR USE IN TREATMENT OF BRAIN CANCERS” (Genentech, Inc., priority 2021, published 2024).
